From patent US4599351A (priority 1984, dated 1986) come the findings set out here.

Assay [1] deals with Plasmopara viticola. The assay is described as follows: Eradicant Grape Downy Mildew control (Example 4). The class given is in vivo. As to the method: Compounds of the invention were tested for the eradicant control of the Grape Downy Mildew organism Plasmopara viticola. Detached leaves of between 70 and 80 mm diameter of 7-week-old Vitis vinifera cultivar Emperor grape seedlings were used as hosts. The leaves were inoculated with the organism and placed in an environment chamber and incubated at 18° C.-22° C. and at about 100% relative humidity for 1 to 2 days. The leaves were then sprayed with a solution of the test compound in acetone, water and a small amount of a nonionic emulsifier. The sprayed leaves were then maintained at 18° C.-22° C. and at about 100% relative humidity. Seven to nine days after inoculation, the amount of disease control was determined. The percent disease control provided by the compound of Example 1 was based on the percent disease reduction relative to nontreated check plants.

The subject of assay [2] is Plasmopara viticola. Briefly: whole plant or invertebrate. Type of assay: in vivo.
In another assay the test system is Phytophthora infestans. Briefly: whole plant or invertebrate. The class given is in vivo.
The test system of assay [3] is Pythium vexans Sensitive (Naturally Occurring). Briefly: Fungitoxicity in V-8 juice agar, sensitive Pythium vexans (Example 7). To be noted: for IC50: Phytopythium vexans, V-8 juice agar, read-out: ED50, Pythium vexans Sensitive (Naturally Occurring). The class given is cell-based.
Another assay has as its system Pythium vexans Resistant. The assay is described as follows: microbe, parasite or virus in culture. Type of assay: cell-based. As to conditions: for ED50 Ratio R/S, Pythium vexans: ED50-resistant to ED50-sensitive; for IC50: Phytopythium vexans, read-out: ED50, Pythium vexans Resistant; for ED50 against resistant fungi (in words): resistant mutant strains of Pythium ultimum or Pythium vexans, agar studies.

The subject of assay [4] is Pythium ultimum Sensitive (Naturally Occurring). Briefly: Fungitoxicity in V-8 juice agar, sensitive Pythium ultimum (Example 7). To be noted: for IC50: Globisporangium ultimum, V-8 juice agar, read-out: ED50, Pythium ultimum Sensitive (Naturally Occurring). The class given is cell-based.
For assay [5], the system named is Pythium ultimum Resistant. The assay is described as follows: microbe, parasite or virus in culture. The class given is cell-based. To be noted: for ED50 Ratio R/S, Pythium ultimum: ED50-resistant to ED50-sensitive; for IC50: Globisporangium ultimum, read-out: ED50, Pythium ultimum Resistant.
The mark [6] stands for this setting: Plasmopara viticola, in Vitis vinifera, read-out: Fungicidal Efficacy, GDM (percent disease control).
[7] abbreviates: Phytophthora infestans, in Solanum lycopersicum, read-out: Fungicidal Efficacy, TLB (percent disease control).
[8] abbreviates: Table II Test 5, 6.4 ppm, infection in check plants 60%.
Where [9] appears, read: Table II Test 5, 16 ppm, infection in check plants 60%.
Setting [10] is: Table II Test 5, 40 ppm, infection in check plants 60%.
Setting [11] is: Table II Test 4, 16 ppm, infection in check plants 63%.
Where [12] appears, read: Table II Test 4, 40 ppm, infection in check plants 63%.
The mark [13] stands for this setting: Table II Test 4, 100 ppm, infection in check plants 63%.
The mark [14] stands for this setting: Table II Test 4, 250 ppm, infection in check plants 63%.

Converted amounts (≈) assume the structure as drawn. “And” between values parts separate entries of the source, which are not always exact repeats. Identical values can stand only once. Where only a bound is given, the exact number is not on record here.

As for `CCCCC(=O)N(c1c(C)cccc1C)C1CCOC1=O` (stereo not shown) [3-(N-valeryl-N-2,6-dimethylphenylamino)-gamma-butyrolactone], the entries for the “percent disease control (eradicant)” value in the assay with Plasmopara viticola [1] (40 ppm) and with Plasmopara viticola [1] (100 ppm) were 92% and 100%, respectively. For the same compound, the pest or weed control at 250 ppm was found to be 100% in the assay with Plasmopara viticola [2] (setting [6]) and 96% with Phytophthora infestans (setting [7]). In addition, the “Percent Control of GDM” value with Plasmopara viticola [2] (in vivo) was 100% and 60% and 54%. Also, the “fungicidal activity toward Grape Downy Mildew (in words)” value with Plasmopara viticola [2] (in vivo) is on record as “unexpectedly high fungicidal activity toward Grape Downy Mildew”. Moreover, the results for the “Percent Control of TLB” value with Phytophthora infestans (setting [8]), with Phytophthora infestans (setting [9]) and with Phytophthora infestans (setting [10]) were 8%, 28% and 42%, respectively. Also, the results for the IC50 (in assay [3]; in the assay on Pythium vexans Resistant) were 0.1 µg/mL (≈ 0.346 µM) and 40 µg/mL (≈ 138 µM), respectively. Further, in the assay with Pythium vexans Resistant, the “ED50 Ratio R/S, Pythium vexans” value is 400. Also, the “ED50 against resistant fungi (in words)” value in the assay on Pythium vexans Resistant was “substantially better ED50's against resistant fungi than the compounds where R^1 has less than 3 carbon atoms”.

Consider `CCCCCC(=O)N(c1c(C)cccc1C)C1CCOC1=O` (stereo not shown) [(CH2)4 CH3], for which the pest or weed control at 250 ppm in the assay with Plasmopara viticola [2] (setting [6]) was found to be 100%; in the assay with Phytophthora infestans (setting [7]), 91%. Besides, in the assay with Plasmopara viticola [2] (in vivo), the “base ED50 relative to Grape Downy Mildew producing fungi (natural), versus R^1 is propyl or butyl compounds” value is “four to ten times higher than the R^1 is propyl or butyl compounds”. Besides, the figures for the “Percent Control of TLB” value in the assay on Phytophthora infestans (setting [8]), in the assay with Phytophthora infestans (setting [9]) and in the assay on Phytophthora infestans (setting [10]) were 7%, 3% and 37%, respectively. Moreover, the IC50 came out at 0.56 µg/mL (≈ 1.85 µM) in assay [3] and 16 µg/mL (≈ 52.7 µM) in the assay on Pythium vexans Resistant. Besides, the “ED50 Ratio R/S, Pythium vexans” value in the assay with Pythium vexans Resistant was determined as 29. In the assay on Pythium vexans Resistant (Table III), the “ED50 R/S ratio (in words)” value was “excellent”. In addition, the “effect of acquired Control resistance on fungitoxicity (in words)” value in the assay with Pythium vexans Resistant (Table III, resistant mutants of Pythium ultimum and/or Pythium vexans) was “substantially less affected by the acquired Control resistance than any of the compounds in Table III”. Moreover, the “ED50 against resistant fungi (in words)” value in the assay with Pythium vexans Resistant was “excellent”.

Take `CCC(=O)N(c1c(C)cccc1C)C1CCOC1=O` (stereo not shown) [C2 H5]: in the assay with Phytophthora infestans (setting [7]), the pest or weed control at 250 ppm worked out at 23%. The “Percent Control of TLB” value in the assay on Phytophthora infestans (setting [11]) turned out to be 0%; in the assay on Phytophthora infestans (setting [12]) it was 0%; with Phytophthora infestans (setting [13]), 54%; in the assay with Phytophthora infestans (setting [14]), 80%. The IC50 was 0.26 µg/mL (≈ 0.995 µM) in assay [4], 210 µg/mL (≈ 804 µM) in assay [5], more than 1 µg/mL in assay [3] and 140 µg/mL (≈ 536 µM) with Pythium vexans Resistant. The “ED50 relative to the R^1 is propyl compound, P. ultimum (sensitive)” value in assay [4] (comparison in words) is “more than ten times”. The “ED50 Ratio R/S, Pythium ultimum” value in assay [5] worked out at 808. Further, the “ED50 relative to the R^1 is propyl compound, P. ultimum (resistant)” value in assay [5] (comparison in words) is reported as “more than twice the ED50 for the R^1 is propyl compound”. Besides, in assay [3] (comparison in words), the “ED50 relative to the R^1 is butyl compound, P. vexans (sensitive)” value was “more than ten times”. The “ED50 relative to the R^1 is propyl compound, P. vexans (sensitive)” value in assay [3] (comparison in words) is “more than two times”. Besides, in the assay on Pythium vexans Resistant, the “ED50 Ratio R/S, Pythium vexans” value is reported as less than 140. The “ED50 R/S ratio (in words)” value in the assay with Pythium vexans Resistant (Table III) is given as “very good”. The “ED50 relative to the R^1 is butyl compound, P. vexans (resistant)” value in the assay on Pythium vexans Resistant (comparison in words) was “more than three times that of the R^1 is butyl compound”. Further, the “ED50 relative to the R^1 is propyl compound, P. vexans (resistant)” value with Pythium vexans Resistant (comparison in words) is recorded as “more than three times that of the R^1 is propyl compound”.

In the case of `Cc1cccc(C)c1N(C(=O)C(C)(C)C)C1CCOC1=O` (stereo not shown) [C(CH3)3], the pest or weed control at 250 ppm in the assay with Phytophthora infestans (setting [7]) turned out to be 0%.

Turning to `CCCC(=S)N(c1c(C)cccc1C)C1CCOC1=O` (stereo not shown) [CH2 CH2 CH3, Y = O, Z = S], the pest or weed control at 250 ppm in the assay with Plasmopara viticola [2] (setting [6]) is 100%; with Phytophthora infestans (setting [7]) it was 96%.

On to `CCCC(=O)N(c1c(C)cccc1C)C1CCSC1=O` (stereo not shown) [CH2 CH2 CH3, Y = S, Z = O, 3-(N-butyryl-2,6-dimethylanilino)-butyrothiolactone], for which the pest or weed control at 250 ppm with Plasmopara viticola [2] (setting [6]) was determined as 99%; in the assay on Phytophthora infestans (setting [7]) it was 35%.

For the compound `Cc1cccc(C)c1N(C(=O)CC(C)C)C1CCOC1=O` (stereo not shown) [CH2 CH(CH3)2], the pest or weed control at 250 ppm worked out at 96% in the assay on Plasmopara viticola [2] (setting [6]) and 0% in the assay with Phytophthora infestans (setting [7]).

For `Cc1cccc(C)c1N(C(=O)CCl)C1CCOC1=O` (stereo not shown) [CH2 Cl, reference compound], the IC50 in assay [4] turned out to be 0.005 µg/mL (≈ 0.0177 µM); in assay [5], 120 µg/mL (≈ 426 µM); in assay [3], 0.19 µg/mL (≈ 0.674 µM); with Pythium vexans Resistant, 145 µg/mL (≈ 515 µM). In addition, the “ED50 Ratio R/S, Pythium ultimum” value in assay [5] was 24,000. Besides, the “ED50 Ratio R/S, Pythium vexans” value with Pythium vexans Resistant was 763.

Regarding `COCC(=O)N(c1c(C)cccc1C)C1CCOC1=O` (stereo not shown) [CH2 OCH3, reference compound], the IC50 in assay [4] is 0.005 µg/mL (≈ 0.018 µM); in assay [5], 800 µg/mL (≈ 2880 µM); in assay [3], 0.15 µg/mL (≈ 0.541 µM); in the assay on Pythium vexans Resistant, 400 µg/mL (≈ 1440 µM). Also, the “ED50 Ratio R/S, Pythium ultimum” value in assay [5] is 160,000.

In the case of `CC(=O)N(c1c(C)cccc1C)C1CCOC1=O` (stereo not shown) [CH3], the figures for the pest or weed control at 100 ppm in the assay with Plasmopara viticola [2] (setting [6]) and with Phytophthora infestans (setting [7]) were 42% and 79%, respectively.

With `Cc1cccc(C)c1N(C(=O)C(C)C)C1CCOC1=O` (stereo not shown) [CH(CH3)2], the results for the pest or weed control at 250 ppm with Plasmopara viticola [2] (setting [6]) and in the assay on Phytophthora infestans (setting [7]) were 0% and 23%, respectively.

Turning to `COCC(=O)N(c1c(C)cccc1C)C(C)C(=O)OC` (stereo not shown) [CONTROL, N-methoxyacetyl-N-(1-methoxycarbonylethyl)-2,6-dimethylaniline, reference compound], the IC50 in assay [4] amounted to 0.036 µg/mL (≈ 0.129 µM); in assay [5] it was 940 µg/mL (≈ 3370 µM); in assay [3] it was 0.075 µg/mL (≈ 0.268 µM); with Pythium vexans Resistant, 635 µg/mL (≈ 2270 µM). Besides, in assay [5], the “ED50 Ratio R/S, Pythium ultimum” value is on record as 26,000. The “ED50 Ratio R/S, Pythium vexans” value with Pythium vexans Resistant is reported as 8,467.

In the case of `CCCC(=O)N(c1c(C)cccc1C)C1CCOC1=O` (stereo not shown) [Example 1, 3-(N-butyryl-N-2,6-dimethylphenylamino)-gamma-butyrolactone], the “percent disease control (eradicant)” value in the assay with Plasmopara viticola [1] (40 ppm), in the assay on Plasmopara viticola [1] (100 ppm) and with Plasmopara viticola [1] (250 ppm) was 100% each time. The pest or weed control at 250 ppm in the assay on Plasmopara viticola [2] (setting [6]) amounted to 100%; in the assay on Phytophthora infestans (setting [7]) it was 99%. Moreover, the “fungicidal activity toward Grape Downy Mildew (in words)” value in the assay on Plasmopara viticola [2] (in vivo) was “unexpectedly high fungicidal activity toward Grape Downy Mildew”. Moreover, the “Percent Control of TLB” value is given as 0% in the assay with Phytophthora infestans (setting [11]), 48% in the assay on Phytophthora infestans (setting [12]), 76% in the assay on Phytophthora infestans (setting [13]) and 94% with Phytophthora infestans (setting [14]). In addition, the IC50 in assay [4] was 0.02 µg/mL (≈ 0.0726 µM); in assay [5], 95 µg/mL (≈ 345 µM); in assay [3], 0.43 µg/mL (≈ 1.56 µM); in the assay on Pythium vexans Resistant it was 43 µg/mL (≈ 156 µM). Also, the “ED50 Ratio R/S, Pythium ultimum” value in assay [5] was 4,750. Besides, the “ED50 Ratio R/S, Pythium vexans” value in the assay with Pythium vexans Resistant is 100. For the same compound, the “ED50 against resistant fungi (in words)” value in the assay on Pythium vexans Resistant is listed as “substantially better ED50's against resistant fungi than the compounds where R^1 has less than 3 carbon atoms”.
